± gives the standard deviation of the averaged measurements.
Tests used:
Experiment in all cases: level (log10 ratio to DMSO vehicle control); higher = higher biomarker level / cell amount than vehicle control
Conditions in all cases: in DMSO
[1] = compound: O=C(O)C(F)(F)OC(F)(F)C(F)(F)OC(F)(F)C(F)(F)C(F)(F)C(F)(F)F [Perfluoro-3,6-dioxadecanoic acid]
Experimental: (§1)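 BioMAP Diversity Plus panel of 12 human primary cell co-culture systems (3C, 4H, LPS, SAg, BT, BF4T, BE3C, CASM3C, HDF3CGF, KF3CT, MyoF, Mphg). Compounds were added 1 h before stimulation and left for 24 h (MyoF 48 h; BT 72 h for soluble read-outs or 6 d for IgG). Biomarkers were read by ELISA, cytotoxicity by SRB, PBMC viability and proliferation by Alamar Blue. Each well value was divided by the mean of 8 DMSO control wells on the same plate and log10 transformed; duplicate blinded samples were tested at 4 concentrations.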

[2] = compound: OCC(F)(F)C(F)(F)C(F)(F)C(F)(F)C(F)(F)C(F)F [1H,1H,7H-Dodecafluoro-1-heptanol]
Experimental: as §1

Perfluorooctanamidine = compound: N=C(N)C(F)(F)C(F)(F)C(F)(F)C(F)(F)C(F)(F)C(F)(F)C(F)(F)F [Perfluorooctanamidine]
Experimental: as §1

[3] = compound: FC(F)(F)C(F)(F)C(F)(F)C(F)(F)C(F)(F)C(F)(F)C(F)(F)CCI [1-Iodo-1H,1H,2H,2H-perfluorononane]
Experimental: as §1

[4] = compound: O=C(O)CCC(F)(F)C(F)(F)C(F)(F)F [3:3 Fluorotelomer carboxylic acid]
Experimental: as §1

[5] = compound: C=CC(=O)OCCC(F)(F)C(F)(F)C(F)(F)C(F)(F)F [2-(Perfluorobutyl)ethyl acrylate]
Experimental: as §1

[6] = compound: CNS(=O)(=O)C(F)(F)C(F)(F)C(F)(F)C(F)(F)C(F)(F)C(F)(F)C(F)(F)C(F)(F)F [N-Methylperfluorooctanesulfonamide]
Experimental: as §1

BF4T:CD90
level (log10) ([1]; 6700 nM): -0.023 ± 0.0099 | level (log10) ([1]; 20000 nM): -0.004 ± 0.0014 | level (log10) ([1]; 60000 nM): 0.017 ± 0.0071 | level (log10) ([2]; 6700 nM): -0.0045 ± 0.0035 | level (log10) ([2]; 20000 nM): -0.0085 ± 0.012 | level (log10) ([2]; 60000 nM): -0.0035 ± 0.015 | level (log10) (Perfluorooctanamidine; 6700 nM): 0.0025 ± 0.015 | level (log10) (Perfluorooctanamidine; 20000 nM): -0.0115 ± 0.005 | level (log10) (Perfluorooctanamidine; 60000 nM): 0.042 | level (log10) ([3]; 6700 nM): -0.0245 ± 0.021 | level (log10) ([3]; 20000 nM): -0.0345 ± 0.0021 | level (log10) ([4]; 6700 nM): -0.0025 ± 0.005 | level (log10) ([4]; 20000 nM): -0.009 ± 0.0014 | level (log10) ([4]; 60000 nM): -0.0085 ± 0.013 | level (log10) ([5]; 6700 nM): -0.017 ± 0.0028 | level (log10) ([5]; 20000 nM): -0.025 ± 0.0099 | level (log10) ([5]; 60000 nM): -0.016 ± 0.0071 | level (log10) ([6]; 6700 nM): -0.006 ± 0.0042 | level (log10) ([6]; 20000 nM): -0.005 | level (log10) ([6]; 60000 nM): -0.0065 ± 0.0078

SAg:CD69
level (log10) ([1]; 6700 nM): 0 ± 0.013 | level (log10) ([1]; 20000 nM): -0.0405 ± 0.00071 | level (log10) ([1]; 60000 nM): -0.105 ± 0.067 | level (log10) ([2]; 6700 nM): -0.004 ± 0.013 | level (log10) ([2]; 20000 nM): -0.0015 ± 0.021 | level (log10) ([2]; 60000 nM): -0.002 ± 0.016 | level (log10) (Perfluorooctanamidine; 6700 nM): 0.006 ± 0.03 | level (log10) (Perfluorooctanamidine; 20000 nM): -0.0035 ± 0.019 | level (log10) (Perfluorooctanamidine; 60000 nM): -0.036 | level (log10) ([3]; 6700 nM): -0.011 ± 0.017 | level (log10) ([3]; 20000 nM): -0.0015 ± 0.018 | level (log10) ([4]; 6700 nM): 0.001 ± 0.04 | level (log10) ([4]; 20000 nM): -0.005 ± 0.023 | level (log10) ([4]; 60000 nM): -0.021 ± 0.0057 | level (log10) ([5]; 6700 nM): -0.028 ± 0.0028 | level (log10) ([5]; 20000 nM): -0.0845 ± 0.026 | level (log10) ([5]; 60000 nM): -0.225 ± 0.037 | level (log10) ([6]; 6700 nM): -0.0325 ± 0.0064 | level (log10) ([6]; 20000 nM): -0.0405 ± 0.022 | level (log10) ([6]; 60000 nM): -0.0685 ± 0.053

BF4T:CXCL8/IL-8
level (log10) ([1]; 6700 nM): 0.102 ± 0.0092 | level (log10) ([1]; 20000 nM): 0.163 ± 0.011 | level (log10) ([1]; 60000 nM): 0.171 ± 0.019 | level (log10) ([2]; 6700 nM): 0.016 ± 0.051 | level (log10) ([2]; 20000 nM): 0.0355 ± 0.04 | level (log10) ([2]; 60000 nM): 0.0205 ± 0.03 | level (log10) (Perfluorooctanamidine; 6700 nM): 0.0025 ± 0.016 | level (log10) (Perfluorooctanamidine; 20000 nM): 0.002 ± 0.034 | level (log10) (Perfluorooctanamidine; 60000 nM): 0 | level (log10) ([3]; 6700 nM): -0.0015 ± 0.018 | level (log10) ([3]; 20000 nM): 0.011 ± 0.025 | level (log10) ([4]; 6700 nM): -0.0125 ± 0.025 | level (log10) ([4]; 20000 nM): -0.0155 ± 0.052 | level (log10) ([4]; 60000 nM): -0.019 ± 0.031 | level (log10) ([5]; 6700 nM): -0.006 ± 0.023 | level (log10) ([5]; 20000 nM): -0.0105 ± 0.025 | level (log10) ([5]; 60000 nM): 0.005 ± 0.027 | level (log10) ([6]; 6700 nM): -0.045 ± 0.03 | level (log10) ([6]; 20000 nM): -0.034 ± 0.028 | level (log10) ([6]; 60000 nM): -0.14 ± 0.03

SAg:PBMC Cytotoxicity
level (log10) ([1]; 6700 nM): 0.03 ± 0.0085 | level (log10) ([1]; 20000 nM): 0.0395 ± 0.018 | level (log10) ([1]; 60000 nM): 0.0705 ± 0.00071 | level (log10) ([2]; 6700 nM): 0.001 ± 0.0099 | level (log10) ([2]; 20000 nM): 0.028 ± 0.067 | level (log10) ([2]; 60000 nM): -0.039 ± 0.0028 | level (log10) (Perfluorooctanamidine; 6700 nM): 0.011 ± 0.021 | level (log10) (Perfluorooctanamidine; 20000 nM): 0.003 ± 0.016 | level (log10) (Perfluorooctanamidine; 60000 nM): -0.263 | level (log10) ([3]; 6700 nM): -0.005 ± 0.045 | level (log10) ([3]; 20000 nM): 0.0205 ± 0.035 | level (log10) ([4]; 6700 nM): -0.022 ± 0.0071 | level (log10) ([4]; 20000 nM): -0.014 ± 0.031 | level (log10) ([4]; 60000 nM): -0.0045 ± 0.035 | level (log10) ([5]; 6700 nM): -0.034 ± 0.0085 | level (log10) ([5]; 20000 nM): -0.0385 ± 0.011 | level (log10) ([5]; 60000 nM): -0.125 ± 0.028 | level (log10) ([6]; 6700 nM): 0.0065 ± 0.018 | level (log10) ([6]; 20000 nM): 0.034 ± 0.0042 | level (log10) ([6]; 60000 nM): 0.044 ± 0.045

BF4T:CD106/VCAM-1
level (log10) ([1]; 6700 nM): -0.0965 ± 0.018 | level (log10) ([1]; 20000 nM): -0.083 ± 0.0099 | level (log10) ([1]; 60000 nM): -0.0925 ± 0.03 | level (log10) ([2]; 6700 nM): -0.0065 ± 0.039 | level (log10) ([2]; 20000 nM): -0.0035 ± 0.013 | level (log10) ([2]; 60000 nM): 0.011 ± 0.031 | level (log10) (Perfluorooctanamidine; 6700 nM): 0.0325 ± 0.0092 | level (log10) (Perfluorooctanamidine; 20000 nM): 0.018 ± 0.052 | level (log10) (Perfluorooctanamidine; 60000 nM): 0.021 | level (log10) ([3]; 6700 nM): -0.027 ± 0.0085 | level (log10) ([3]; 20000 nM): -0.061 ± 0.014 | level (log10) ([4]; 6700 nM): -0.012 ± 0.041 | level (log10) ([4]; 20000 nM): 0.0075 ± 0.0078 | level (log10) ([4]; 60000 nM): 0.0205 ± 0.018 | level (log10) ([5]; 6700 nM): 0.005 ± 0.0042 | level (log10) ([5]; 20000 nM): -0.033 ± 0.025 | level (log10) ([5]; 60000 nM): -0.08 ± 0.0028 | level (log10) ([6]; 6700 nM): -0.0235 ± 0.023 | level (log10) ([6]; 20000 nM): -0.0335 ± 0.0092 | level (log10) ([6]; 60000 nM): 0.0175 ± 0.071
